Data set [1] deals with human trehalase. Description: Degradation by human trehalase (cell extract liquids of KP4 and KP4-TREH, LC-MS persistence rate). The note with it: 20 μg/mL, 37° C., up to 24 hours; for degradation by cell extract liquid of human pancreatic cancer cells KP4: control cells. It counts as in vitro ADME. The method, then:
In order to perform a degradation experiment with human trehalase, high expression strains of the same were made.
This plasmid was introduced into various kinds of cultured human cells using Viafect (manufactured by Promega), and the expression level of transient trehalase protein was analyzed by western blotting with 1/2,000-diluted anti-trehalase antibody (manufactured by Santa Cruz). […] Human pancreatic cancer cells KP4 into which pSF-TREH 3-3 plasmid had been introduced as described above was diluted to one cell or less per well, and applied to a 96-well microplate. They were cultured on DMEM culture medium containing 400 μg/mL of G418 (manufactured by Thermo Fisher Scientific), and clones with stable trehalase expression were selected and amplified. Ten strains of KP4-TREH which were the clones with the highest trehalase expression were chosen for use in the subsequent experiments.
Degradation of 4-trehalosamine and trehalose by cell extract liquids of human pancreatic cancer cells KP4 and 10 strains of KP4-TREH, which are cells with high human trehalase expression, was examined.
Using DMEM culture medium, each of the human pancreatic cancer cells KP4 and the 10 strains of KP4-TREH was amplified in a CO2 incubator at 37° C. until they were confluent. After that, the culture medium was removed and washed with PBS (manufactured by Takara Bio Inc.) three times, and cells were collected with a cell scraper in the PBS. After centrifuging the collected cell suspension at 400×g for 3 minutes and removing supernatant, 135 mM citric acid buffer solution (pH 5.7) containing 0.5% Triton (registered trademark) in an amount 15 times the precipitated cells was added and homogenized. The cells were centrifuged at 21,300×g for 10 minutes and the respective supernatants were collected. Aqueous solution of 4-trehalosamine or aqueous solution of trehalose was added at 20 μg/mL to each supernatant and they were left to stand at 37° C. At 0 hours, 2 hours, 8 hours, or 24 hours from the start of reaction, the reaction solutions were collected, was diluted with methanol to 1/10, and centrifuged at 21,300×g for 10 minutes. The respective supernatants were collected and LC-MS analysis was performed under similar conditions to test example 1 to determine the persistence rates of 4-trehalosamine and trehalose in the reaction solution (4TA C) of 4-trehalosamine and the cell extract liquid of human pancreatic cancer cells KP4, the reaction solution (4TA T) of 4-trehalosamine and the cell extract liquid of 10 strains of KP4-TREH, the reaction solution (TRH C) of trehalose and the cell extract liquid of human pancreatic cancer cells KP4, and the reaction solution (TRH T) of trehalose and the cell extract liquid of 10 strains of KP4-TREH.

For data set [2], the system named is human ovarian cancer cells OVK18 and human malignant melanoma cells Mewo. Description: LC3-II expression in combination with autophagy inhibitor (bafilomycin or chloroquine). It is filed as cell-based. Conditions: 50 mM 4-trehalosamine, 50 μM IMCTA-C14 or 100 mM trehalose 14 hours, then 200 nM BM or 100 μM CQ 4 hours. The method, then: As with the test example 10-1, human ovarian cancer cells OVK18 (obtained from RIKEN BRC) and human malignant melanoma cells Mewo (JCRB0066) were each inoculated on a 12-well microplate at 8×10^4 cells/mL/well, and cultured in DMEM culture medium at 37° C. for 72 hours. After that, a half of the culture fluid in each well was taken and each compound was dissolved so that the final concentration is 50 mM 4-trehalosamine, 50 μM IMCTA-C14, or 100 mM trehalose. After dissolving it sufficiently, the cells were returned to the original well and treated at 37° C. for 14 hours. Untreated cells without addition of the compounds were used as control.
After that, each autophagy inhibitor was added so that the final concentration is 200 nM bafilomycin (BM) or 100 μM chloroquine (CQ), and the cells were cultured at 37° C. for 4 hours. A group with no inhibitor added was cultured in a similar way. After culture, they were turned into samples for western blotting in a similar manner to test example 10-1.
The western blotting was performed in a similar manner to test example 4 except that anti-LC3 antibody (manufactured by Cell Signaling Technology) was used at 1/2,000 dilution as the primary antibody in the method described in test example 4. The results for human ovarian cancer cells OVK18 are shown in FIG. 21A, and the results for human malignant melanoma cells Mewo are shown in FIG. 21B.
Also, the results (graphs) of image analysis on the results of western blotting via Image J (manufactured by National Institutes of Health) are shown in FIGS. 21A and 21B (n=10, mean±S.D.). The vertical axis of the graph indicates the value of the amount of expression (expression amount ratio) of LC3-II for the groups with the different compounds added when the amount of expression of LC3-II in the control (untreated cells) is 1. […]

SMILES strings stand for the structures.

For the molecule `N[C@H]1[C@H](O)[C@@H](O)[C@@H](O[C@H]2O[C@H](CO)[C@@H](O)[C@H](O)[C@H]2O)O[C@@H]1CO` [4-trehalosamine], in data set [1], the “degradation by cell extract liquid of 10 strains of KP4-TREH (high human trehalase expression)” value is given as “almost no degradation or decrease” and the “degradation by cell extract liquid of human pancreatic cancer cells KP4” value is recorded as “neither trehalose nor 4-trehalosamine was degraded”. Further, the “expression of LC3-II in combination with bafilomycin (BM) or chloroquine (CQ)” value in data set [2] was “increased expression of LC3-II”.

As for `OC[C@H]1O[C@H](O[C@H]2O[C@H](CO)[C@@H](O)[C@H](O)[C@H]2O)[C@H](O)[C@@H](O)[C@@H]1O` [trehalose, reference compound], in data set [1], the “degradation by cell extract liquid of 10 strains of KP4-TREH (high human trehalase expression)” value is “almost disappeared after 8 hours” and the “degradation by cell extract liquid of human pancreatic cancer cells KP4” value is recorded as “neither trehalose nor 4-trehalosamine was degraded”. Also, the “expression of LC3-II in combination with bafilomycin (BM) or chloroquine (CQ)” value in data set [2] is reported as “increased expression of LC3-II”.

Source of the values: patent publication US20250002954A1, “Novel Compound, Use Thereof, and Method for Producing Same, and Compound-Containing Composition, Method for Producing 4-Trehalosamine, and Microorganism” (Microbial Chemistry Research Foundation, priority 2021, published 2025).
